Test system: 857933-349-R-J2-PDC complex spheroids, viability
Assay: Anticancer human tumor 857933-349-R-J2-PDC patient-derived colon adenocarcinoma cell line growth inhibition [GQUAD]
Settings: for IC50: curve of first compound; for viability, T/C: stronger effect = lower value
Summary of the method: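 Viability of tumor cells grown as complex spheroids with endothelial and stromal cells, exposed to drug combinations. Top concentration at or near clinical Cmax (else 10 microM), diluted in half-log increments.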

[1] = second compound 0.0316 µM, first compound 0.0316 µM
[2] = second compound 0.0316 µM, first compound 0.1 µM
[3] = second compound 0.0316 µM, first compound 0.316 µM
[4] = second compound 0.0316 µM, first compound 1 µM
[5] = second compound 0.0316 µM, first compound 3.16 µM
[6] = second compound 0.0316 µM, first compound 10 µM
[7] = second compound 0.1 µM, first compound 0.0316 µM
[8] = second compound 0.1 µM, first compound 0.1 µM
[9] = second compound 0.1 µM, first compound 0.316 µM
[10] = second compound 0.1 µM, first compound 1 µM
[11] = second compound 0.1 µM, first compound 3.16 µM
[12] = second compound 0.1 µM, first compound 10 µM
[13] = second compound 0.316 µM, first compound 0.0316 µM
[14] = second compound 0.316 µM, first compound 0.1 µM
[15] = second compound 0.316 µM, first compound 0.316 µM
[16] = second compound 0.316 µM, first compound 1 µM
[17] = second compound 0.316 µM, first compound 3.16 µM
[18] = second compound 0.316 µM, first compound 10 µM
[19] = second compound 1 µM, first compound 0.0316 µM
[20] = second compound 1 µM, first compound 0.1 µM
[21] = second compound 1 µM, first compound 0.316 µM
[22] = second compound 1 µM, first compound 1 µM
[23] = second compound 1 µM, first compound 3.16 µM
[24] = second compound 1 µM, first compound 10 µM
[25] = second compound 3.16 µM, first compound 0.0316 µM
[26] = second compound 3.16 µM, first compound 0.1 µM
[27] = second compound 3.16 µM, first compound 0.316 µM
[28] = second compound 3.16 µM, first compound 1 µM
[29] = second compound 3.16 µM, first compound 3.16 µM
[30] = second compound 3.16 µM, first compound 10 µM
[31] = second compound 10 µM, first compound 0.0316 µM
[32] = second compound 10 µM, first compound 0.1 µM
[33] = second compound 10 µM, first compound 0.316 µM
[34] = second compound 10 µM, first compound 1 µM
[35] = second compound 10 µM, first compound 3.16 µM
[36] = second compound 10 µM, first compound 10 µM
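Note: spheroids exposed to compounds for one week before readout.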
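Throughout, for viability, T/C: percent viability relative to vehicle DMSO wells taken as 100%.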

**Q.** With `CC1COCCN1c1cc(-c2ccnn2C)c2ccnc(-c3ccn[nH]3)c2n1` (stereo unspecified) + Cc1[nH]c2ccc(F)cc2c1-c1nc2c3cccnc3c3ncccc3c2[nH]1 as the molecule, how does the IC50 (second compound 0.0316 µM) read?
**A.** 250 nM

**Q.** And the IC50 (second compound 0.1 µM)?
**A.** 491 nM

**Q.** What about the IC50 (second compound 0.316 µM) of the same molecule?
**A.** 327 nM

**Q.** What about the IC50 (second compound 1 µM) of the same molecule?
**A.** 280 nM

**Q.** And the IC50 (second compound 3.16 µM)?
**A.** 197 nM

**Q.** What about the IC50 (second compound 10 µM) of the same molecule?
**A.** 277 nM

**Q.** What about the viability, T/C [1] of the same molecule?
**A.** 73.7%

**Q.** What about the viability, T/C [2] of the same molecule?
**A.** 53.2%

**Q.** And the viability, T/C [3]?
**A.** 50.3%

**Q.** And the viability, T/C [4]?
**A.** 43.8%

**Q.** What about the viability, T/C [5] of the same molecule?
**A.** 55.3%

**Q.** And the viability, T/C [6]?
**A.** 44.8%

**Q.** What about the viability, T/C [7] of the same molecule?
**A.** 69.6%

**Q.** And the viability, T/C [8]?
**A.** 70.9%

**Q.** And the viability, T/C [9]?
**A.** 53.2%

**Q.** What about the viability, T/C [10] of the same molecule?
**A.** 43.5%

**Q.** What about the viability, T/C [11] of the same molecule?
**A.** 46.9%

**Q.** And the viability, T/C [12]?
**A.** 44.2%

**Q.** What about the viability, T/C [13] of the same molecule?
**A.** 71.7%

**Q.** And the viability, T/C [14]?
**A.** 56.6%

**Q.** And the viability, T/C [15]?
**A.** 49.2%

**Q.** And the viability, T/C [16]?
**A.** 48.8%

**Q.** And the viability, T/C [17]?
**A.** 47.4%

**Q.** And the viability, T/C [18]?
**A.** 46.6%

**Q.** What about the viability, T/C [19] of the same molecule?
**A.** 61%

**Q.** And the viability, T/C [20]?
**A.** 61.5%

**Q.** What about the viability, T/C [21] of the same molecule?
**A.** 48.6%

**Q.** And the viability, T/C [22]?
**A.** 43.1%

**Q.** What about the viability, T/C [23] of the same molecule?
**A.** 52.8%

**Q.** What about the viability, T/C [24] of the same molecule?
**A.** 50.1%

**Q.** What about the viability, T/C [25] of the same molecule?
**A.** 75.2%

**Q.** What about the viability, T/C [26] of the same molecule?
**A.** 56%

**Q.** And the viability, T/C [27]?
**A.** 45%

**Q.** What about the viability, T/C [28] of the same molecule?
**A.** 43.8%

**Q.** What about the viability, T/C [29] of the same molecule?
**A.** 44.6%

**Q.** What about the viability, T/C [30] of the same molecule?
**A.** 44.7%

**Q.** What about the viability, T/C [31] of the same molecule?
**A.** 74.4%

**Q.** And the viability, T/C [32]?
**A.** 57%

**Q.** What about the viability, T/C [33] of the same molecule?
**A.** 50.4%

**Q.** What about the viability, T/C [34] of the same molecule?
**A.** 43.1%

**Q.** And the viability, T/C [35]?
**A.** 46.1%

**Q.** What about the viability, T/C [36] of the same molecule?
**A.** 42.6%

**Q.** `COc1cccc2c1C(=O)c1c(O)c3c(c(O)c1C2=O)CC(O)(C(=O)CO)CC3OC1CC(N)C(O)C(C)O1` (stereo unspecified) + Cc1cnc(CNC(=O)c2c(=O)c3ccc(N4CCCN(C)CC4)nc3n3c2sc2ccccc23)cn1 was tested. Which IC50 (second compound 0.0316 µM) did it give?
**A.** 398 nM

**Q.** What about the IC50 (second compound 0.1 µM) of the same molecule?
**A.** 212 nM

**Q.** What about the IC50 (second compound 0.316 µM) of the same molecule?
**A.** < 31.6 nM

**Q.** And the IC50 (second compound 1 µM)?
**A.** < 31.6 nM

**Q.** And the IC50 (second compound 3.16 µM)?
**A.** < 31.6 nM

**Q.** What about the IC50 (second compound 10 µM) of the same molecule?
**A.** < 31.6 nM

**Q.** And the viability, T/C [1]?
**A.** 72.5%

**Q.** What about the viability, T/C [2] of the same molecule?
**A.** 51.6%

**Q.** What about the viability, T/C [3] of the same molecule?
**A.** 54.1%

**Q.** What about the viability, T/C [4] of the same molecule?
**A.** 35.8%

**Q.** And the viability, T/C [5]?
**A.** 3.33%

**Q.** And the viability, T/C [6]?
**A.** 0.11%

**Q.** What about the viability, T/C [7] of the same molecule?
**A.** 53%

**Q.** What about the viability, T/C [8] of the same molecule?
**A.** 57.9%

**Q.** And the viability, T/C [9]?
**A.** 44.4%

**Q.** What about the viability, T/C [10] of the same molecule?
**A.** 29.3%

**Q.** And the viability, T/C [11]?
**A.** 2.19%

**Q.** And the viability, T/C [12]?
**A.** 0.13%

**Q.** What about the viability, T/C [13] of the same molecule?
**A.** 27.1%

**Q.** What about the viability, T/C [14] of the same molecule?
**A.** 29.6%

**Q.** And the viability, T/C [15]?
**A.** 11.8%

**Q.** And the viability, T/C [16]?
**A.** 4.55%

**Q.** And the viability, T/C [17]?
**A.** 0.39%

**Q.** What about the viability, T/C [18] of the same molecule?
**A.** 0.1%

**Q.** What about the viability, T/C [19] of the same molecule?
**A.** 5.09%

**Q.** And the viability, T/C [20]?
**A.** 6.32%

**Q.** And the viability, T/C [21]?
**A.** 3.38%

**Q.** What about the viability, T/C [22] of the same molecule?
**A.** 1.67%

**Q.** And the viability, T/C [23]?
**A.** 0.15%

**Q.** And the viability, T/C [24]?
**A.** 0.09%

**Q.** What about the viability, T/C [25] of the same molecule?
**A.** 2.45%

**Q.** And the viability, T/C [26]?
**A.** 2.76%

**Q.** And the viability, T/C [27]?
**A.** 1.56%

**Q.** And the viability, T/C [28]?
**A.** 0.62%

**Q.** What about the viability, T/C [29] of the same molecule?
**A.** 0.14%

**Q.** What about the viability, T/C [30] of the same molecule?
**A.** 0.12%

**Q.** And the viability, T/C [31]?
**A.** 2.24%

**Q.** And the viability, T/C [32]?
**A.** 2.09%

**Q.** What about the viability, T/C [33] of the same molecule?
**A.** 0.73%

**Q.** What about the viability, T/C [34] of the same molecule?
**A.** 0.23%

**Q.** And the viability, T/C [35]?
**A.** 0.23%

**Q.** And the viability, T/C [36]?
**A.** 0.19%

**Q.** How did the IC50 (second compound 0.0316 µM) turn out when `O=c1[nH]cc(F)c(=O)[nH]1` + Cc1cnc(CNC(=O)c2c(=O)c3ccc(N4CCCN(C)CC4)nc3n3c2sc2ccccc23)cn1 was run?
**A.** 1500 nM

**Q.** And the IC50 (second compound 0.1 µM)?
**A.** 859 nM

**Q.** And the IC50 (second compound 0.316 µM)?
**A.** < 31.6 nM

**Q.** What about the IC50 (second compound 1 µM) of the same molecule?
**A.** < 31.6 nM

**Q.** What about the IC50 (second compound 3.16 µM) of the same molecule?
**A.** < 31.6 nM

**Q.** And the IC50 (second compound 10 µM)?
**A.** < 31.6 nM

**Q.** What about the viability, T/C [1] of the same molecule?
**A.** 95%

**Q.** And the viability, T/C [2]?
**A.** 95.9%

**Q.** What about the viability, T/C [3] of the same molecule?
**A.** 87.3%

**Q.** And the viability, T/C [4]?
**A.** 60.8%

**Q.** And the viability, T/C [5]?
**A.** 30%

**Q.** And the viability, T/C [6]?
**A.** 18.9%

**Q.** And the viability, T/C [7]?
**A.** 72.2%

**Q.** What about the viability, T/C [8] of the same molecule?
**A.** 84.7%

**Q.** What about the viability, T/C [9] of the same molecule?
**A.** 64.8%

**Q.** What about the viability, T/C [10] of the same molecule?
**A.** 47%

**Q.** And the viability, T/C [11]?
**A.** 26.3%

**Q.** What about the viability, T/C [12] of the same molecule?
**A.** 13.6%

**Q.** And the viability, T/C [13]?
**A.** 25.4%

**Q.** What about the viability, T/C [14] of the same molecule?
**A.** 29.3%

**Q.** And the viability, T/C [15]?
**A.** 22.8%

**Q.** What about the viability, T/C [16] of the same molecule?
**A.** 15.7%

**Q.** And the viability, T/C [17]?
**A.** 11%

**Q.** And the viability, T/C [18]?
**A.** 5.17%

**Q.** What about the viability, T/C [19] of the same molecule?
**A.** 5.21%

**Q.** And the viability, T/C [20]?
**A.** 5.61%

**Q.** What about the viability, T/C [21] of the same molecule?
**A.** 4.05%

**Q.** And the viability, T/C [22]?
**A.** 4.64%

**Q.** And the viability, T/C [23]?
**A.** 4.34%

**Q.** What about the viability, T/C [24] of the same molecule?
**A.** 3.5%

**Q.** And the viability, T/C [25]?
**A.** 2.29%

**Q.** What about the viability, T/C [26] of the same molecule?
**A.** 3.17%

**Q.** What about the viability, T/C [27] of the same molecule?
**A.** 3.1%

**Q.** And the viability, T/C [28]?
**A.** 2.6%

**Q.** And the viability, T/C [29]?
**A.** 3.16%

**Q.** And the viability, T/C [30]?
**A.** 3.13%

**Q.** And the viability, T/C [31]?
**A.** 1.93%

**Q.** And the viability, T/C [32]?
**A.** 2.51%

**Q.** What about the viability, T/C [33] of the same molecule?
**A.** 2.25%

**Q.** What about the viability, T/C [34] of the same molecule?
**A.** 1.52%

**Q.** And the viability, T/C [35]?
**A.** 2.21%

**Q.** What about the viability, T/C [36] of the same molecule?
**A.** 1.32%

— PubChem BioAssay AID2060491 (Molecular Pharmacology Branch, DTP, NCI, 2025)
